Counter-ions that a name gives are not always drawn.
Tests used:
Type in all cases: cell-based
[1] = system: HBV; test: Single agent anti-HBV activity, HBV DNA in supernatant by quantitative PCR, HepG2.2.15 cells; settings: Hepatitis B virus, 192 h, day 8
Protocol: (§1) Cell line: HepG2.2.15 cells are constructed and provided by WuXi AppTec. The cell culture medium is DMEM/F12 medium supplemented with 2% fetal bovine serum, 2 mM glutamine, 1×non-essential amino acids, 100 U/mL penicillin and 100 µg/mL streptomycin.
(§2) 2.1.1 On the first day, HepG2.2.15 cells were seeded into a 96-well cell culture plate at a density of 60,000 cells/well, and then the cells were cultured overnight at 5% CO2 and 37° C. On the second day, the compound 1 and the compound of formula (IIb) and the compound of formula (IIIb) were diluted and added to a 96-well plate. Each combination was a three-fold plate. The cells were cultured under 5% CO2 and 37° C. for 3 days. On the 5th day, a new culture medium containing the compound was replaced, and the supernatant was collected on the 8th day. The HBsAg in the supernatant was detected by ELISA, and the DNA in the supernatant was extracted at the same time, and the content of HBV DNA in the supernatant was detected by quantitative PCR. After collecting the cell supernatant, add CellTiter-Glo to detect cell viability.

[2] = system: HBsAg; test: Single agent anti-HBV activity, HBsAg in supernatant by ELISA, HepG2.2.15 cells; settings: Hepatitis B virus, HepG2.2.15, 192 h, read-out: HBsAg EC50
Protocol: as §1, §2

[3] = Single agent cytotoxicity, CellTiter-Glo; settings: human, HepG2.2.15 cells
Protocol: as §1, §2

[4] = system: HepG2.2.15 cells; test: Cytotoxicity of the compounds in combination, CellTiter Glo
Protocol: as §1
2.2.1 On the first day, HepG2.2.15 cells were seeded into a 96-well cell culture plate at a density of 60,000 cells/well, and then the cells were cultured overnight at 5% CO2 and 37° C. On the second day, different concentrations of compounds were added to treat the cells. Compounds were diluted in gradients, 7×7 concentration combinations, and 3 replicate plates were tested in parallel. The compound concentration tested for joint activity is based on the EC50 value of each compound. The 7 concentration gradients are approximately: 2×, 1×, ½×, ¼×, ⅛×, 1/16× and 1/32×EC50. The compound concentration of the combined activity test experiment is shown in Table 8, and the combination drug arrangement is shown in Table 9. On the 5th day, replace the fresh culture medium containing the compound. On the 8th day, the culture supernatant was collected, DNA was extracted, and the content of HBV DNA was detected by quantitative PCR. At the same time, CellTiter Glo reagent was used to detect cell viability and MacSynergy software was used to analyze the combined effect of the two drugs.

[5] = system: HepG2.2.15 cells; test: CellTiter-Glo cytotoxicity of compound 1 / TDF combination
Protocol: 1.1 Day 1, HepG2.2.15 cells were seeded into a 96-well cell culture plate at a density of 40,000 cells/well, and then the cells were cultured overnight at 5% CO2 and 37° C.
1.2 Day 2, the compound 1 and TDF were combined with 7 different concentrations (selected about 8×, 4×, 2×, 1×, 0.5×, 0.25×, 0.125×EC50 concentration gradient) for orthogonal proportioning, and added to 96-well plate, each combination is 3 double plates, and the final concentration of DMSO is 0.5%.
1.3 Day 5, the cell supernatant was discarded, a fresh medium containing the compound was added, and the cells were cultured under 5% CO2, 37° C. for 3 days. On the 8th day, the supernatant from the cell plate treated with the compound was extracted according to the QIAamp 96 DNA Blood Kit (12) instruction.
MacSynegy software (Prichard et al., 1990) was used to process the HBV DNA copy number test data and analyze the effect parameters of compound 1 and TDF in combination. The CellTiter-Glo kit was used to detect the cytotoxicity of the compounds to HepG2.2.15 cells. According to the kit instructions, use a multifunctional microplate reader to detect the chemiluminescence intensity (RLU) of each cell well.

## COCCCOc1cc2c(cc1OC)-c1cc(=O)c(C(=O)O)cn1[C@H](C(C)(C)C)CO2 [Compound of formula (IIb)]
[1]
  EC50: 1.52 nM
[2]
  EC50: 4.9 nM
[3]
  CC50 at 6 days: > 1000 nM
[4]; Compound 1 0 nM + formula (IIb) 0.09375 nM
  average cell viability percentage: 101.23%
[4]; Compound 1 0 nM + formula (IIb) 0.1875 nM
  average cell viability percentage: 101.98%
[4]; Compound 1 0 nM + formula (IIb) 0.375 nM
  average cell viability percentage: 102.39%
[4]; Compound 1 0 nM + formula (IIb) 0.75 nM
  average cell viability percentage: 105.36%
[4]; Compound 1 0 nM + formula (IIb) 1.5 nM
  average cell viability percentage: 104.15%
[4]; Compound 1 0 nM + formula (IIb) 3 nM
  average cell viability percentage: 102.61%
[4]; Compound 1 0 nM + formula (IIb) 6 nM
  average cell viability percentage: 111.27%

## COCCCOc1cc2c(cc1OC)-c1cc(=O)c(C(=O)O)cn1[C@H](c1cccs1)O2 [Compound of formula (IIIb)]
[1]
  EC50: 0.78 nM
[2]
  EC50: 0.91 nM
[3]
  CC50 at 6 days: > 50 nM
[4]; Compound 1 0 nM + formula (IIIb) 0.01875 nM
  average cell viability percentage: 103.45%
[4]; Compound 1 0 nM + formula (IIIb) 0.0375 nM
  average cell viability percentage: 103.81%
[4]; Compound 1 0 nM + formula (IIIb) 0.075 nM
  average cell viability percentage: 105.64%
[4]; Compound 1 0 nM + formula (IIIb) 0.15 nM
  average cell viability percentage: 105.68%
[4]; Compound 1 0 nM + formula (IIIb) 0.3 nM
  average cell viability percentage: 103.14%
[4]; Compound 1 0 nM + formula (IIIb) 0.6 nM
  average cell viability percentage: 103.50%
[4]; Compound 1 0 nM + formula (IIIb) 1.2 nM
  average cell viability percentage: 112.02%

## CC(C)OC(=O)OCOP(=O)(CO[C@H](C)Cn1cnc2c(N)ncnc21)OCOC(=O)OC(C)C [TDF, tenofovir disoproxil fumarate, reference compound]
[5]; Compound 1 0 nM + TDF 1 nM
  average cell viability percentage: 103.1%
[5]; Compound 1 0 nM + TDF 2 nM
  average cell viability percentage: 101.1%
[5]; Compound 1 0 nM + TDF 4 nM
  average cell viability percentage: 103.8%
[5]; Compound 1 0 nM + TDF 8 nM
  average cell viability percentage: 116.6%
[5]; Compound 1 0 nM + TDF 16 nM
  average cell viability percentage: 111.4%
[5]; Compound 1 0 nM + TDF 32 nM
  average cell viability percentage: 111 ± 7.3%
[5]; Compound 1 0 nM + TDF 64 nM
  average cell viability percentage: 127 ± 14%

From US12569500B2, “Combination comprising tricycle compound and use thereof in preparation of medicament for treating HBV” (FUJIAN AKEYLINK BIOTECHNOLOGY CO., LTD., priority 2020, dated 2026)
